# In patent publication US20260158009A1 (GENZYME CORPORATION, priority 2023, published 2026):
# What was measured:
# U937 cells = assay: Cellular assay in U937 cells: activity of RIPK1 inhibitors on TNFα/zVAD.fmk-induced cell death (necroptosis), CellTiter 96 AQueous (MTS) readout; assay type: cell-based; conditions: Homo sapiens, U-937
# How it was run: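 Necroptosis was measured by viable-cell MTS reduction (4 h, absorbance 490 nm) after overnight (18–24 h) 37° C culture. Cell suspensions of U937 cells carried TNFα (100 ng/ml) plus zVAD.fmk (50 μM) before compound was added. A 10-point curve (10 μM–0.26 nM or 1 μM–0.07 nM) was run in duplicate, normalised to the control lacking TNFα/zVAD.fmk.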
# [1] = target: T1, hRIPK1 (aa 1-375) fusion protein (Homo sapiens, UniProt Q13546); assay: ADP-Glo kinase assay: catalytic activity of RIPK1 (autophosphorylation, conversion of ATP to ADP); assay type: biochemical
# T1 construct: hRIPK1 (aa 1-375) fusion protein
# T1 sequence (Q13546 1-375): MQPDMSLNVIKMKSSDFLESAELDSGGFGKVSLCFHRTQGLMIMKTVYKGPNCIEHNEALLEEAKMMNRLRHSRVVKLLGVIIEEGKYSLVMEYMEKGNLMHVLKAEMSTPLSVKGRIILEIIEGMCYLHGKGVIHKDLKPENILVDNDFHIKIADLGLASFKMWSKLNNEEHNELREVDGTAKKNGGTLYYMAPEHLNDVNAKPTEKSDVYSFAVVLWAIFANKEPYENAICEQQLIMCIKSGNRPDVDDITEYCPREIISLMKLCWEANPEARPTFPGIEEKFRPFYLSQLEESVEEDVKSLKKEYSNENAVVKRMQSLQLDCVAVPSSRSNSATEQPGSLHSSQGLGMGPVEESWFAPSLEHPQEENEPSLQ
# How it was run: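 The readout was ADP-Glo luminescence after a 240 min rt autophosphorylation reaction with 50 μM ATP, following 30 min preincubation of 3.6 μg/ml hRIPK1 (aa 1-375) fusion with compound at 33300-1.69 nM final in 1% DMSO. Values came from Levenberg-Marquardt nonlinear fits.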
Compound,IC50 (U937 cells) [nM],IC50 [1] [nM]
"O=C([C@H]1CC[C@H](Cc2ccc3ncnn3c2)CC1)N1OCC[C@H]1c1cnccn1 [compound 143, trans-[(3S)-3-pyrazin-2-ylisoxazolidin-2-yl]-[4-([1,2,4]triazolo[1,5-a]pyridin-6-ylmethyl)cyclohexyl]methanone]",44,76
Cc1nc2c(C)cc(C[C@H]3CC[C@@](C)(C(=O)N4OCC[C@H]4c4cnc(C)c(F)c4)CC3)cn2n1 [compound 402],1130,2000
"N#Cc1cncc([C@@H]2CCON2C(=O)[C@H]2CC[C@H](Cn3cnc4cc(F)ccc43)CC2)c1 [compound 107, trans-5-((S)-2-(4-((5-fluoro-1H-benzo[d]imidazol-1-yl)methyl)cyclohexane-1-carbonyl)isoxazolidin-3-yl)nicotinonitrile]",108,39
"Cc1cc([C@@H]2CCON2C(=O)[C@H]2CC[C@H](Cn3cnc4cc(F)c(C#N)cc43)CC2)co1 [compound 39, trans-5-fluoro-1-((4-((S)-3-(5-methylfuran-3-yl)isoxazolidine-2-carbonyl)cyclohexyl)methyl)-1H-benzo[d]imidazole-6-carbonitrile]",15,28
"Cc1ccc(CC23CCC(C(=O)N4OCC[C@H]4c4cc(F)cc(F)c4)(CC2)CC3)cc1C(N)=O [compound 273, 5-[[4-[(3S)-3-(3,5-difluorophenyl)-1,2-oxazolidine-2-carbonyl]-1-bicyclo[2.2.2]octanyl]methyl]-2-methylbenzamide]",9,15
"Cc1ncc([C@@H]2CCON2C(=O)[C@H]2CC[C@H](Cc3ccc4ncnn4c3)CC2)cc1F [compound 337, trans-[(3S)-3-(5-fluoro-6-methylpyridin-3-yl)-1,2-oxazolidin-2-yl]-[4-([1,2,4]triazolo[1,5-a]pyridin-6-ylmethyl)cyclohexyl]methanone]",31,26
"Cn1nccc1-c1cc(F)cc(C[C@H]2CC[C@H](C(=O)N3OCC[C@H]3c3cc(F)cc(C#N)c3)CC2)c1 [compound 214, trans-3-fluoro-5-[(3S)-2-[4-[[3-fluoro-5-(2-methylpyrazol-3-yl)phenyl]methyl]cyclohexanecarbonyl]isoxazolidin-3-yl]benzonitrile]",4,20
"CNC(=O)c1ccc(F)c(C[C@H]2CC[C@H](C(=O)N3OCC[C@H]3c3cc(F)cc(C#N)c3)CC2)c1 [compound 177, trans-3-[[4-[(3S)-3-(3-cyano-5-fluoro-phenyl)isoxazolidine-2-carbonyl]cyclohexyl]methyl]-4-fluoro-N-methyl-benzamide]",5,11
"O=C([C@H]1C[C@H](Cn2cnc3cc(F)ccc32)C1)N1OCC[C@H]1c1cc(F)cc(F)c1 [compound 115, trans-((S)-3-(3,5-difluorophenyl)isoxazolidin-2-yl)(3-((5-fluoro-1H-benzo[d]imidazol-1-yl)methyl)cyclobutyl)methanone]",138,31
"Cc1nc([C@@H]2CCON2C(=O)[C@H]2CC[C@H](Cn3cc4ccc(C(N)=O)cc4n3)CC2)cs1 [Compound 233, trans-2-[[4-[(3S)-3-(2-methylthiazol-4-yl)isoxazolidine-2-carbonyl]cyclohexyl]methyl]indazole-6-carboxamide]",384,114
"O=C1NCc2c(F)cc(C[C@H]3CC[C@H](C(=O)N4OCC[C@H]4c4ccc(F)cc4)CC3)cc21 [compound 212, trans-4-fluoro-6-[[4-[(3S)-3-(4-fluorophenyl)isoxazolidine-2-carbonyl]cyclohexyl]methyl]isoindolin-1-one]",10,23
"Cc1ccc([C@@H]2CCON2C(=O)C23CCC(Cc4ccc(C)c(C(N)=O)c4)(CC2)CC3)cn1 [compound 272, 2-methyl-5-[[4-[(3S)-3-(6-methyl-3-pyridyl)isoxazolidine-2-carbonyl]-1-bicyclo[2.2.2]octanyl]methyl]benzamide]",206,29
"Cc1cc(C[C@H]2CC[C@H](C(=O)N3OCC[C@H]3c3cnccn3)CC2)cn2ncnc12 [compound 250, trans-[4-[(8-methyl-[1,2,4]triazolo[1,5-a]pyridin-6-yl)methyl]cyclohexyl]-[(3S)-3-pyrazin-2-yl-1,2-oxazolidin-2-yl]methanone]",17,16
"Cc1ncc(C[C@H]2CC[C@H](C(=O)N3OCC[C@H]3c3cnc(C)c(F)c3)CC2)cn1 [compound 343, trans-[(3S)-3-(5-fluoro-6-methylpyridin-3-yl)-1,2-oxazolidin-2-yl]-[4-[(2-methylpyrimidin-5-yl)methyl]cyclohexyl]methanone]",21,43
"Cc1ncc(C#N)cc1C[C@H]1CC[C@H](C(=O)N2OCC[C@H]2c2cc(F)cc(C#N)c2)CC1 [compound 277, trans-5-[[4-[(3S)-3-(3-cyano-5-fluoro-phenyl)isoxazolidine-2-carbonyl]cyclohexyl]methyl]-6-methyl-pyridine-3-carbonitrile]",4,19
"NC(=O)c1cc2c(ccn2C[C@H]2CC[C@H](C(=O)N3OCC[C@H]3c3cc(F)cc(F)c3)CC2)cc1F [compound 77, trans-1-((4-((S)-3-(3,5-difluorophenyl)isoxazolidine-2-carbonyl)cyclohexyl)methyl)-5-fluoro-1H-indole-6-carboxamide]",3,14
"Cc1nc([C@@H]2CCON2C(=O)[C@H]2CC[C@H](Cc3ccc(C4(O)COC4)cc3)CC2)cs1 [compound 369, trans-{4-[4-(3-Hydroxy-oxetan-3-yl)-benzyl]-cyclohexyl}-[(S)-3-(2-methyl-thiazol-4-yl)-isoxazolidin-2-yl]-methanone]",24,26
"N#Cc1cc(F)cc([C@@H]2CCON2C(=O)[C@H]2C[C@H](Cn3cnc4cc(F)ccc43)C2)c1 [compound 116, trans-3-fluoro-5-((S)-2-(3-((5-fluoro-1H-benzo[d]imidazol-1-yl)methyl)cyclobutane-1-carbonyl)isoxazolidin-3-yl)benzonitrile]",491,57
"Cc1ccc([C@@H]2CCON2C(=O)[C@H]2CC[C@H](Cc3ccc(C4(O)COC4)cc3)CC2)cn1 [compound 348, trans-5 [4-[[4-(3-hydroxyoxetan-3-yl)phenyl]methyl]cyclohexyl]-[(3S)-3-(6-methylpyridin-3-yl)-1,2-oxazolidin-2-yl]methanone]",105,37
"N#Cc1cncc([C@@H]2CCON2C(=O)[C@H]2CC[C@H](Cn3cc4ccc(C#N)cc4n3)CC2)c1 [compound 127, trans-2-((4-((S)-3-(5-cyanopyridin-3-yl)isoxazolidine-2-carbonyl)cyclohexyl)methyl)-2H-indazole-6-carbonitrile]",15,29
"Cc1nc2ccc(C[C@H]3CC[C@H](C(=O)N4OCC[C@H]4c4cc(F)cc(F)c4)CC3)nn2n1 [compound 315, [(3S)-3-(3,5-difluorophenyl)-1,2-oxazolidin-2-yl]-[4-[(2-methyl-[1,2,4]triazolo[1,5-b]pyridazin-6-yl)methyl]cyclohexyl]methanone]",20,10
"O=C1NCc2ccc(C[C@H]3CC[C@H](C(=O)N4OCC[C@H]4c4cncc(F)c4)CC3)cc21 [compound 155, trans-6-[[4-[(3S)-3-(5-fluoro-3-pyridyl)isoxazolidine-2-carbonyl]cyclohexyl]methyl]isoindolin-1-one]",19,15
"Cc1cc(C[C@H]2CC[C@H](C(=O)N3OCC[C@H]3c3cnc(C)c(F)c3)CC2)c(C)cn1 [compound 332, trans-[4-[(2,5-dimethylpyridin-4-yl)methyl]cyclohexyl]-[(3S)-3-(5-fluoro-6-methylpyridin-3-yl)-1,2-oxazolidin-2-yl]methanone]",3,12
"O=C1NCc2ccc(C[C@H]3CC[C@H](C(=O)N4OCC[C@H]4c4cc(F)cc(F)c4)CC3)cc21 [compound 156, trans-6-[[4-[(3S)-3-(3,5-difluorophenyl)isoxazolidine-2-carbonyl]cyclohexyl]methyl]isoindolin-1-one]",6,16
"Cc1cc([C@@H]2CCON2C(=O)[C@H]2CC[C@H](Cn3cc4ccc(C#N)cc4n3)CC2)co1 [compound 41, trans-2-((4-((S)-3-(5-methylfuran-3-yl)isoxazolidine-2-carbonyl)cyclohexyl)methyl)-2H-indazole-6-carbonitrile]",91,30
"N#Cc1cnc2cn(C[C@H]3CC[C@H](C(=O)N4OCC[C@H]4c4cc(F)cc(F)c4)CC3)nc2c1 [compound 25, trans-2-((4-((S)-3-(3,5-difluorophenyl)isoxazolidine-2-carbonyl)cyclohexyl)methyl)-2H-pyrazolo[4,3-b]pyridine-6-carbonitrile]",154,68
